According to US20220151989A1, “LIPOIC ACID PRODRUG” (SANTEN PHARMACEUTICAL CO., LTD., priority 2019, published 2022):

Legend:
lens elasticity [1] = assay: Pharmacological Test-2: lens elasticity at different concentrations, instillation 3 times per day for 12 to 15 days; format: in vivo, C57BL/6J mice; settings: for Lens elasticity improvement: 3 times per day for 12 to 15 days; for lens elasticity improvement compared with 1.5% EV06 group: 0.03% and 0.3% sample groups
Description: The effects of Compounds 1, 3, and 4 on the lens elasticity were investigated at different concentrations.
(§1) Vehicle A (aqueous solution) comprising 0.1% (w/v) of ethyl pyruvate, 0.269% (w/v) of sodium dihydrogenphosphate monohydrate (NaH2PO4.H2O), 0.433% (w/v) of disodium hydrogenphosphate (Na2HPO4), 0.2% (w/v) of hydroxypropyl methylcellulose, 0.5% (w/v) of NaCl, 0.2% (w/v) of 0035, and purified water (appropriate amount) was prepared.
as §1, with “B (emulsion)” for “A (aqueous solution)”, “CO35, 0.6% benzyl benzoate,” for “0035,”
as §1, with “Vehicle C” for “Vehicle A”, “NaCl, 1.0%” for “NaCl, 0.2%”
as §1, with “Vehicle D (emulsion)” for “Vehicle A (aqueous solution)”, “NaCl, 1.0%” for “NaCl, 0.2%”, “of CO35, 3.0% benzyl benzoate,” for “of 0035,”
A diluent (aqueous solution) comprising 0.1% (w/v) of ethyl pyruvate, 0.269% (w/v) of sodium dihydrogenphosphate monohydrate (NaH2PO4.H2O), 0.433% (w/v) of disodium hydrogenphosphate (Na2HPO4), 0.2% (w/v) of hydroxypropyl methylcellulose, 0.5% (w/v) of NaCl, and purified water (appropriate amount) was prepared.
Compound 1 was stirred with the addition of Vehicle C to prepare a 1.5% (w/v) emulsion, and the emulsion was diluted with the diluent to give a 0.3% (w/v) emulsion. Further, the resulting 0.3% (w/v) emulsion was diluted with the diluent to give a 0.03% (w/v) emulsion. Further, the resulting 0.03% (w/v) emulsion was diluted with the diluent to give a 0.003% (w/v) emulsion.
Compound 3 was stirred with the addition of Vehicle C to give a 1.5% (w/v) solution, and the resulting solution was diluted to give a 0.3% (w/v) solution. Further, the resulting 0.3% (w/v) solution was diluted with Vehicle A to give a 0.03% (w/v) solution. Further, the resulting 0.03% (w/v) solution was diluted with Vehicle A to give a 0.003% (w/v) solution.
Compound 4 was stirred with the addition of Vehicle D to give a 1.5% (w/v) emulsion, and the resulting emulsion was diluted with the diluent to prepare a 0.3% (w/v) emulsion. Further, the resulting 0.3% (w/v) emulsion was diluted with the diluent to give a 0.03% (w/v) emulsion. Further, the resulting 0.03% (w/v) emulsion was diluted with the diluent to give a 0.003% (w/v) emulsion.
EV06 was stirred with the addition of Vehicle A to give a 1.5% (w/v) solution, which was used for comparison to the samples of Compound 1 and 3.
EV06 was sonicated with the addition of Vehicle B to give a 1.5% (w/v) emulsion, which was used for comparison to Compound 4 sample.
(Test method) 1) Each test sample (2.5 μL/eye) was instilled into the right eye of 7 to 8-month-old C57BL/6J mice with a Pipetman 3 times per day (around 9:00, 13:00 and 17:00) for 12 to 15 days. 2) After the final instillation, the mice were euthanized by carbon dioxide inhalation, and then the eyeballs were extracted and rinsed with Hank's balanced salt solution (HESS). 3) The sclera near the optic nerve was cut with a razor, the lens was removed through the incision, and the removed lens was immersed in HESS. 4) The lens was placed on a glass slide, and an all-in-one fluorescence microscope BZ-9000 (Keyence) was used to capture an image of the lens (Image a). […]

lens elasticity [2] = assay: Pharmacological Test-1: lens elasticity after instillation 3 times per day for 12 to 15 days; format: in vivo, C57BL/6J mice; settings: for Lens elasticity improvement: 0.03% (w/v) solution, 2.5 μL/eye, right eye, 3 times per day for 12 to 15 days, 8-month-old mice, vs vehicle control; for lens elasticity improving effect: at a concentration of 0.03%
Description: The effects of compounds 1 to 4 on the lens elasticity were examined. The tests were conducted with reference to the methods described in Invest Ophthalmol Vis Sci, 57, 2851-2863, 2016.
A vehicle (aqueous solution) comprising 0.1% (w/v) of ethyl pyruvate, 0.269% (w/v) of sodium dihydrogenphosphate monohydrate (NaH2PO4.H2O), 0.433% (w/v) of di sodium hydrogenphosphate (Na2HPO4), 0.2% (w/v) of hydroxypropyl methylcellulose, 0.5% (w/v) of NaCl, 1.0% (w/v) of polyoxyl 35 castor oil (hereinafter also referred to as “CO35”), and purified water (appropriate amount) was prepared.
Each of compounds 1 to 4 was stirred with the addition of the vehicle to give a 0.03% (w/v) solution.
EV06 was stirred with the addition of the vehicle to give a 0.03% (w/v) solution. (Test method) 1) Each test sample (2.5 μL/eye) was instilled into the right eye of 8-month-old C57BL/6J mice with a Pipetman 3 times per day (around 9:00, 13:00, 17:00) for 12 to 15 days. 2) After the final instillation, the mice were euthanized by carbon dioxide inhalation, and then the eyeballs were extracted and rinsed with Hank's balanced salt solution (HESS). 3) The sclera near the optic nerve was cut with a razor, the lens was removed through the incision, and the removed lens was immersed in HESS. 4) The lens was placed on a glass slide, and an all-in-one fluorescence microscope BZ-9000 (Keyence) was used to capture an image of the lens (Image a). 5) Next, one cover glass (Corning^registered trade mark) 22×22 mm Square) was placed on the lens, and an image in which the thickness of the lens changed due to the weight was similarly captured (Image b). 6) A change in the lens diameter was calculated from the following Equation 1 wherein the lens diameter of Image a is subtracted from the lens diameter of Image b. Then, the lens elasticity improvement of each sample group compared with the vehicle control group was calculated from Equation 2 described below. The mean value of the vehicle control group was based on 5 eyes, the mean value of each of the sample groups of compounds 1 to 4 was based on 10 eyes, and the mean value of EV06 sample group was based on 9 eyes.
Change in lens diameter=Lens diameter in Image b of each test sample−Lens diameter in Image a of each test sample (Equation 1)
Lens elasticity improvement of each sample group=Mean change in lens diameter of each Test sample group−Mean change in lens diameter of Vehicle control group (Equation 2)

[3] = 0.003% (w/v) sample, 7 to 8-month-old mice
[4] = 0.03% (w/v) sample, 7 to 8-month-old mice
[5] = 0.3% (w/v) sample, 7 to 8-month-old mice

Row | Compound | Lens elasticity improvement (lens elasticity [1]; 1.5% (w/v) emulsion in Vehicle B, Table 4 (comparison to Compound 4)) [μm] | Lens elasticity improvement (lens elasticity [1]; 1.5% (w/v) solution in Vehicle A, Table 2 (comparison to Compound 1)) [μm] | Lens elasticity improvement (lens elasticity [1]; 1.5% (w/v) solution in Vehicle A, Table 3 (comparison to Compound 3)) [μm] | Lens elasticity improvement (lens elasticity [2]) [μm] | lens elasticity improving effect (lens elasticity [2]) | Lens elasticity improvement (lens elasticity [1]; [3]) [μm] | Lens elasticity improvement (lens elasticity [1]; [4]) [μm] | lens elasticity improvement compared with 1.5% EV06 group (lens elasticity [1]) | Lens elasticity improvement (lens elasticity [1]; [5]) [μm]
1 | C[N+](C)(C)CCOC(=O)CCCC[C@@H]1CCSS1.[Cl-] [EV06, Lipoic acid choline ester, reference compound] | 46.8 | 30.8 | 18.2 | 4.0 | did not show lens elasticity improving effect | – | – | – | –
2 | CC(C)=CCOC(=O)CCCC[C@@H]1CCSS1 [Compound 1, 3-Methyl-2-buten-1-yl (R)-5-(1,2-dithiolan-3-yl)pentanoate] | – | – | – | 48.0 | potent lens elasticity improving effect | 13.0 | 37.1 | equivalent to or better than 1.5% EV06 group | 36.8
3 | O=C(CCCC[C@@H]1CCSS1)OCCN1CCN(CCO)CC1 [Compound 3] | – | – | – | 49.9 | potent lens elasticity improving effect | 1.3 | 30.7 | equivalent to or better than 1.5% EV06 group | 41.8
